Test results as given in US20220186186A1, “COMPOSITION FOR INDUCING DIRECT CONVERSION OF SOMATIC CELL INTO COMMON MYELOID PROGENITOR AND USE THEREOF” (KOREA INSTITUTE OF SCIENCE AND TECHNOLOGY, priority 2020, published 2022).

Test system: neonatal fibroblasts (HDF-N)
Assay: Direct conversion of neonatal fibroblasts to CMP cells, marker expression by flow cytometry (FACS)
Format: cell-based, human
Description: Human dermal fibroblasts derived from human skin were purchased from ThermoFisher (USA). Human neonatal dermal fibroblasts (HDF-N; neonatal-C0045C) and human adult dermal fibroblasts (HDF-A; adult-C0135C) were purchased, respectively.
To confirm direct conversion potential of fibroblasts to CMP cells, flow cytometry (FACS) analyses were performed. Using the antibodies listed below, expression levels of proteins including the hematopoietic stem cell (HSC) membrane marker CD34, the blood cell membrane marker CD45, and the common myeloid progenitor (CMP) membrane marker CD14, were confirmed. The antibodies used are as follows: • FITC conjugated mouse anti-human CD34 monoclonal antibodies, eBioscience • APC conjugated mouse anti-human CD45 monoclonal antibodies, eBioscience • APC-eFluoro780 conjugated mouse anti-human CD14 monoclonal antibodies, eBioscience
Cells were dissociated into single cells with accutase and then washed with 1% FBS/PBS solution. After treatment with Fc blocker (BD Bioscience) for 10 minutes to prevent non-specific antigen binding, the cells were blocked for 15 minutes using 1% FBS/PBS solution. […] Subsequent to the reaction, the cells were washed twice with cold PBS solution and analyzed by flow cytometry using CytoFLEX by Beckman, and data were analyzed using the CytExpert program. […]

Structure (SMILES): Cc1cccc(-c2n[nH]cc2-c2ccc3ncccc3n2)n1 [Example 3-1, 2-[3-(6-methylpyridin-2-yl)-1H-pyrazol-4-yl]-1,5-naphthyridine]
- expression of the blood cell marker CD45 (28 days, inhibitor alone, Table 3 and FIG. 18): increase
- CD45-expressing cell (%) compared to negative control group (Cnt) (cultured 28 days in reprogramming media with the chemical composition, Table 3): 6.36%
